Here are results for 34 compounds from ChEMBL document CHEMBL3301361, “Experimental in vitro DMPK and physicochemical data on a set of publicly disclosed compounds”.

Structures are written as SMILES. Values after ≈ are worked out from the molar mass of the structure shown.

A short description of this data set: physchem. Particulars: pH 7.4 buffer.
`O=C(NC1C2CC3CC(C2)CC1C3)[C@H]1CCCN1Cc1ccc(Cl)cc1` (some centres undefined) came in with a solubility (thermodynamic) of 21.4 µM (≈ 7.98 µg/mL).
Compound `O=C(c1ccc(F)cc1)C1CCN(C(=O)c2ccccc2Cl)CC1` showed a solubility (thermodynamic) of 28.8 µM (≈ 9.96 µg/mL).
`Cc1ccc(C(=O)N2CCC(C(=O)c3ccc(F)cc3)CC2)cc1` showed a solubility (thermodynamic) of 20.4 µM (≈ 6.64 µg/mL).
The compound `O=C(NCc1ccccc1)c1cccn(Cc2ccccc2)c1=O` had a thermodynamic solubility of 26.3 µM (≈ 8.37 µg/mL).
The same measure for `O=C(c1ccc(Cl)cc1)C1CCN(C(=O)c2ccccc2)CC1`: 29.5 µM (≈ 9.67 µg/mL); for `CN(C)C(=O)c1nnsc1Sc1ccc(Cl)cc1`: 31.6 µM (≈ 9.47 µg/mL); for `O=C(c1ccccc1)C1CCN(C(=O)c2ccc(Cl)cc2)CC1`: 28.8 µM (≈ 9.44 µg/mL).
For `Cc1ccc2nc(-c3ccccc3)cc(O)c2c1`, the thermodynamic solubility stood at 22.9 µM (≈ 5.39 µg/mL).
The compound `CC(C)(C)OC(=O)N1CCC[C@H]1C(=O)Nc1ccc(Br)cc1` gave a thermodynamic solubility of 23.4 µM (≈ 8.64 µg/mL).
`Cc1ccccc1N(C)c1ccnc(Nc2cc(N3CCOCC3)cc(N3CCOCC3)c2)n1` had a solubility (thermodynamic) of 30.9 µM (≈ 14.2 µg/mL).
`COc1cc(Oc2ccc(C(=O)NCc3ccncc3)cc2)ccc1[N+](=O)[O-]` gave a thermodynamic solubility of 21.4 µM (≈ 8.12 µg/mL).
Compound `CN(C(=O)Cc1ccc(Br)cc1)C1CCN(CCC(c2ccccc2)c2ccccc2)CC1` returned a thermodynamic solubility of 21.9 µM (≈ 11.1 µg/mL).
The same measure for `CCn1ccc(NC(=O)Cc2ccc(Oc3ncnc4cc(OC)c(OC)cc34)cc2)n1`: 32.4 µM (≈ 14 µg/mL); for `CCn1cc(NC(=O)Cc2ccc(Oc3ncnc4cc(OC)c(OC)cc34)cc2)cn1`: 24 µM (≈ 10.4 µg/mL).
The compound `COc1cnc(Cl)c(Nc2ncnc3cc(OCCN4CCN(C(C)=O)CC4)cc(OC(C)C)c23)n1` returned a thermodynamic solubility of 22.4 µM (≈ 11.6 µg/mL).
In turn, `O=c1cc(-c2ccccc2)[nH]c2c(Cl)cccc12` yielded a thermodynamic solubility of 30.9 µM (≈ 7.9 µg/mL).
To `NC1(c2ccc(-c3nn4cccc4cc3-c3ccccc3)cc2)CCC1` belongs 26.3 µM (≈ 8.93 µg/mL); to `C[C@@H](O)C(=O)N1CC=C(c2c(F)cc(N3C[C@H](COc4ccon4)OC3=O)cc2F)CC1`, 25.1 µM (≈ 11.3 µg/mL); to `c1ccc(-c2nc[nH]c2-c2ccccc2)cc1`, 22.9 µM (≈ 5.04 µg/mL).
To `CN1CCC(c2cc(N3CCOCC3)nc(-c3cccc4[nH]ccc34)n2)(S(C)(=O)=O)CC1` belongs 21.4 µM (≈ 9.75 µg/mL); to `Cc1ccc(Oc2ccc(Nc3ncnc4cccc(O[C@H](C)C(=O)N(C)C)c34)cc2C)cn1`, 22.9 µM (≈ 10.5 µg/mL); to `C[C@@H](Oc1cccc2ncnc(Nc3ccc4c(cnn4Cc4nccs4)c3)c12)C(=O)N(C)C`, 29.5 µM (≈ 14 µg/mL).
Regarding `C[C@H](Oc1cccc2ncnc(Nc3ccc4c(cnn4Cc4nccs4)c3)c12)C(=O)N(C)C`, the thermodynamic solubility is 31.6 µM (≈ 15 µg/mL).
The compound `CC(C)Oc1cc(OCCc2ccccc2)cc(C(=O)Nc2ccc(C(=O)O)cn2)c1` yielded a solubility (thermodynamic) of 28.8 µM (≈ 12.1 µg/mL).
Turning to `O=c1[nH]c2cc(Cl)c([N+](=O)[O-])cc2c(O)c1-c1ccccc1`, the solubility (thermodynamic) was determined as 29.5 µM (≈ 9.34 µg/mL).
The same measure for `Cc1cc(C)cc(-c2[nH]c3sc(C(C)(C)C(=O)N4C5CCC4CC5)cc3c2CCN2CCC(C(=O)N3CCOCC3)C(C)C2)c1` (centres undefined): 33.1 µM (≈ 20.9 µg/mL); for `Nc1ccccc1NC(=O)c1ccc(N2CCN(Cc3ccccc3)CC2)cc1`: 28.2 µM (≈ 10.9 µg/mL); for `COc1ccc(Cl)c(Nc2ncnc3cc(OCCN4CCOCC4)cc(OC(C)C)c23)n1`: 26.9 µM (≈ 12.7 µg/mL).
`COc1cc2ncnc(Nc3cccc(Cl)c3F)c2cc1CN(C)C1(C(N)=O)CN(C(C)C)C1` had a solubility (thermodynamic) of 25.7 µM (≈ 12.5 µg/mL).
For the compound `Cc1ccc(Oc2ccc(Nc3ncnc4cccc(O[C@@H](C)C(=O)N(C)C)c34)cc2C)cn1`, the thermodynamic solubility worked out at 26.3 µM (≈ 12 µg/mL).
Compound `Cc1ccc(Oc2ccc(Nc3ncnc4cccc(O[C@@H](C)C(=O)N5CCOCC5)c34)cc2C)cn1` returned a solubility (thermodynamic) of 31.6 µM (≈ 15.8 µg/mL).
In turn, `COc1ccc(-c2cc(N)c(C(N)=O)s2)cc1` showed a solubility (thermodynamic) of 30.9 µM (≈ 7.67 µg/mL).
As for `CS(=O)(=O)c1cccc(Nc2nccc(Nc3c(Cl)ccc4c3OCO4)n2)c1`, the solubility (thermodynamic) was 30.2 µM (≈ 12.6 µg/mL).
In the case of `CN(C)CCNS(=O)(=O)c1ccc(Nc2nccc(-c3cnc4ccccn34)n2)cc1`, the thermodynamic solubility worked out at 30.9 µM (≈ 13.5 µg/mL).
